Measurements reported in US12172992B2, “Pyrimidines for degrading Bruton's tyrosine kinase” (AbbVie Inc., priority 2022, dated 2024).

Molecular target: BTK protein in human whole blood (Homo sapiens (Human), UniProt Q06187)
Experiment: Btk protein in human whole blood MSD ELISA based assay (BTK degradation)
Assay type: cell-based
Conditions: 6 hours, maximum BTK degradation compared to DMSO only treated samples, read-out: hWB BTK dMax (%)
Procedure: Btk protein degradation was tested using an Meso Scale Discovery-ELISA system (MSD-ELISA): (1) Test compounds were added to human whole blood; (2) human whole blood cells treated with test compounds were lysed; (3) lysed cells were treated with capture antibody, an antibody to Btk; (4) lysed cells were treated with […] to Btk; and (5) lysed cells were treated with anti-mouse antibody (tagged).
Specifically, about 80 μl of fresh human whole blood from healthy donors was transferred into each well of a 96-well V-bottom plate (Costar, Cat No. 3894). Using a TECAN™ D300e Digital Dispenser (Tecan)), 1:4 serially diluted compounds [(8 pt assay) in DMSO solution (final 0.2%) starting at 3 μM top concentration], were added in duplicate. Thereafter, plates were placed in a 37° C. incubator and incubated for 6 hours.
At the end of incubation, 80 μl of 2×CST lysis buffer (Cell Signaling Technology, Cat No. 9803), prepared from a 10× stock solution, was added per well to lyse the blood. Plates were then sealed with a plate sealer and the samples were frozen overnight at −80° C.
Total amount of BTK protein remaining in the blood samples after compound treatment was measured using MSD-ELISA. After thawing the frozen plates, blood lysates were mixed thoroughly and transferred to small spot high-bind MSD plates (Meso Scale Discovery, Cat No. L45XB-3) and coated with capturing antibody, rabbit anti-human BTK (D3H5) (Cell Signaling Technology, Cat No. 8547CF). Thereafter, primary detection antibody, mouse anti-human BTK monoclonal antibody, (BD Biosciences, Cat No. 611117) and secondary detection antibody, anti-mouse SULFO-TAG (Meso Scale Discovery, Cat No. R32AC-1) were added. The assay plates were read on an MSD S600 plate reader by the addition of 2×MSD read buffer (Meso Scale Discovery, R92TC-1). All reagent transfers, including blood lysis, was conducted using a Biomed i7 liquid handler. From the dose response curves, DC50 values were calculated by averaging data from duplicate experiments. and Curve fitting was done by non-linear regression using GraphPad Prism. The DC50 values are reported in Table 2 in the hWB BTK DC50 (nM) column The Dmax values represent the maximum amount of BTK degradation observed upon compound treatment compared to DMSO only treated samples. The dMax (%) values are reported in Table 2 in the hWB BTK dMax (%) column.

BTK protein in human whole blood, sequence (Q06187 whole entry): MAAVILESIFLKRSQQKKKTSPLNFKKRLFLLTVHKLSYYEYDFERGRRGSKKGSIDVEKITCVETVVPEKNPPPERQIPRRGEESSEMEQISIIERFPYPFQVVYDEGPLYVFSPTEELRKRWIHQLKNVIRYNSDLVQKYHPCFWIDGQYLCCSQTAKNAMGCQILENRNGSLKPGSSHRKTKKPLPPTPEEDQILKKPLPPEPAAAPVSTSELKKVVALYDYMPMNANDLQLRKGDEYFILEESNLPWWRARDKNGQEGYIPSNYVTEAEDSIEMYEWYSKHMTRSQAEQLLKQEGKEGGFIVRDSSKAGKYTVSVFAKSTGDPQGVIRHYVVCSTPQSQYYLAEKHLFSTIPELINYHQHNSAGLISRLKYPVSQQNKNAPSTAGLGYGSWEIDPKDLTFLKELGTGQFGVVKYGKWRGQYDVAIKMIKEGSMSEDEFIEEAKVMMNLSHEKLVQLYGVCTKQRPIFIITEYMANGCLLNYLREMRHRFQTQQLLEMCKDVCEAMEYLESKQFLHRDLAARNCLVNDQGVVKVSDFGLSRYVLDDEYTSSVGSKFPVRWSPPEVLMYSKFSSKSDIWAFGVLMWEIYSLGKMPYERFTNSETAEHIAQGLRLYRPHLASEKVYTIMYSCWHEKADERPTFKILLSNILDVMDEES

Cc1cc(-c2cc(Nc3ccc(N4CCN(CCc5ccc(N6CCC(=O)NC6=O)cc5)C[C@@H]4C)cn3)ncn2)ccc1[C@@H](C)NC(=O)c1nc(C(C)(C)C)no1 [Example 1, 3-tert-butyl-N-[(1R)-1-{4-[6-({5-[(2S)-4-{2-[4-(2,4-dioxo-1,3-diazinan-1-yl)phenyl]ethyl}-2-methylpiperazin-1-yl]pyridin-2-yl}amino)pyrimidin-4-yl]-2-methylphenyl}ethyl]-1,2,4-oxadiazole-5-carboxamide]
Dmax: 100%
